Patent US20210346476A1, “Modified FVIII Apitope Peptides” (APITOPE INTERNATIONAL NV, priority 2012, published 2021)
No end group written: not given here.

Test: Direct dissolution of tagged peptides in aqueous solvent (PBS) at 4 mg/mL, NanoDrop
Type: physicochemical
Conditions: 4 mg/mL in PBS vs DMSO control; FIG. 2
Method: For each test peptide and the parent peptides (PRCLT and DNIMV) two tubes were prepared at 4 mg/mL in either DMSO (control) or PBS.
Each tube was spun at full speed in a mini-centrifuge for 5 minutes. A 10 μL sample was removed from the top of each solution and the molecular weight and coefficient of absorption was recorded for each peptide.
The absorbance of the supernatant was measured using NanoDrop and the concentration calculated. In this Figure, greater disparity between the actual and expected concentration corresponds to lower relative solubility.

KEGDNIMVTFRNQASRPYGKE [SEQ ID No. 26]
solubility in PBS compared to the parent peptides: improved solubility in PBS

KEGDNIMVTFRNQASRPYGKK [SEQ ID No. 25]
solubility in PBS compared to the parent peptides: improved solubility in PBS

KEGPRCLTRYYSSFVNMEGKE [SEQ ID No. 10]
solubility in PBS compared to the parent peptides: improved solubility in PBS

KEGPRCLTRYYSSFVNMEGKK [SEQ ID No. 9]
solubility in PBS compared to the parent peptides: improved solubility in PBS

KKGDNIMVTFRNQASRPYGKE [SEQ ID No. 18]
solubility in PBS compared to the parent peptides: improved solubility in PBS

KKGDNIMVTFRNQASRPYGKK [SEQ ID No. 17]
solubility in PBS compared to the parent peptides: improved solubility in PBS

KKGPRCLTRYYSSFVNMEGKE [SEQ ID No. 2]
solubility in PBS compared to the parent peptides: improved solubility in PBS

KKGPRCLTRYYSSFVNMEGKK [SEQ ID No. 1]
solubility in PBS compared to the parent peptides: improved solubility in PBS
